This passage reports AC1.4 results from US11780826B2 (Amgen Inc., priority 2017, dated 2023).

Molecules are shown by their SMILES.

This assay deals with Bovine cardiac myofibrils. The experiment in a line: In vitro model of dose-dependent myofibril ATPase modulation (AC1.4, pyruvate kinase/lactate dehydrogenase-coupled ATPase assay at pCa25). In kind it is biochemical. As to conditions: concentration at which ATPase activity was 1.4-fold higher than the bottom of the dose curve, mean of a minimum of two independent tests. A digest of the protocol: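 Absorbance at 340 nm tracked ATP hydrolysis through pyruvate kinase/lactate dehydrogenase coupling (0.5 mM NADH, 1.5 mM PEP). Myofibrils from detergent-homogenized bovine heart, 1 mM ATP, pH 6.80, EGTA/CaCl2 buffering. Dose-response curves fitted with a four-parameter Hill equation.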
Compound `Cc1ccc(CNC(=O)[C@H]2CCCN2C(=O)[C@H]2CCCN(S(=O)(=O)N3CC(C#N)C3)C2)cc1Cl` [Example 130, N-(3-chloro-4-methylbenzyl)-1-(((3S)-1-((3-cyano-1-azetidinyl)sulfonyl)-3-piperidinyl)carbonyl)-D-prolinamide] returned an AC1.4 of 0.214 µM.
With `Cc1ccc(CNC(=O)[C@H]2CCCN2C(=O)[C@H]2CCCN(S(=O)(=O)N3CC(C#N)C3)C2)c(Cl)c1` [Example 191, N-(2-chloro-4-methylbenzyl)-1-(((3S)-1-((3-cyano-1-azetidinyl)sulfonyl)-3-piperidinyl)carbonyl)-D-prolinamide], the AC1.4 was determined as 0.3593 µM.
As for `C[C@@H](NC(=O)[C@H]1CCCN1C(=O)c1cccc(S(=O)(=O)N2CC(C#N)C2)c1)c1cc(F)cc(F)c1` [Example 205, 1-(3-((3-cyano-1-azetidinyl)sulfonyl)benzoyl)-N-((1R)-1-(3,5-difluorophenyl)ethyl)-D-prolinamide], the figure is 0.4322 µM; as for `N#CC1CC(S(=O)(=O)c2cccc(C(=O)N3CCCC[C@@H]3C(=O)NCc3ccc(Cl)nc3)c2)C1` (stereo partly drawn) [Example 620, (2R)-N-((6-chloro-3-pyridinyl)methyl)-1-((3-((cis-3-cyanocyclobutyl)sulfonyl)phenyl)carbonyl)-2-piperidinecarboxamide,(2R)-N-((6-chloro-3-pyridinyl)methyl)-1-((3-((trans-3-cyanocyclobutyl)sulfonyl)phenyl)carbonyl)-2-piperidinecarboxamide], 3.94 µM.
As for `CS(=O)(=O)c1cccc(C(=O)N2[C@@H](C(=O)N[C@@H](c3ccc(C(F)(F)F)cc3)C3COC3)C[C@H]3C[C@H]32)c1` [Example 375, (1R,3R,5R)-2-(3-(methylsulfonyl)benzoyl)-N-((R)-3-oxetanyl(4-(trifluoromethyl)phenyl)methyl)-2-azabicyclo[3.1.0]hexane-3-carboxamide], the figure is 1.2153 µM; as for `NS(=O)(=O)c1cccc(C(=O)N2CCCC[C@@H]2C(=O)N[C@@H](c2cc(F)c(Cl)cc2F)C2CC2)c1` [Example 194, (2R)-N-((R)-(4-chloro-2,5-difluorophenyl)(cyclopropyl)methyl)-1-(3-sulfamoylbenzoyl)-2-piperidinecarboxamide], 0.385 µM; as for `O=C(NCc1ccc(C(F)(F)F)cc1)[C@H]1CCCN1C(=O)[C@H]1CCCN(S(=O)(=O)C2CCC2)C1` [Example 780, (R)-1-((S)-1-(cyclobutylsulfonyl)piperidine-3-carbonyl)-N-(4-(trifluoromethyl)benzyl)pyrrolidine-2-carboxamide], 8.4235 µM.
As for `O=C(N[C@@H](c1cc(F)c(Cl)cc1F)C1CC1)[C@H]1C[C@H]2C[C@H]2N1C(=O)c1ccnc(C(F)(F)F)c1` [Example 231, (1R,3R,5R)-N-((R)-(4-chloro-2,5-difluorophenyl)(cyclopropyl)methyl)-2-((2-(trifluoromethyl)-4-pyridinyl)carbonyl)-2-azabicyclo[3.1.0]hexane-3-carboxamide], the figure is 0.5188 µM; as for `N#CC1CN(S(=O)(=O)N2CCC[C@H](C(=O)N3CCC[C@H]3C(=O)NCc3cc(F)cc(F)c3)C2)C1` [Example 694, 1-(((3S)-1-((3-cyano-1-azetidinyl)sulfonyl)-3-piperidinyl)carbonyl)-N-(3,5-difluorobenzyl)-L-prolinamide], 5.48 µM.
`CC(C)Nc1ccc(S(C)(=O)=O)cc1C(=O)N1[C@@H](C(=O)N[C@@H](c2ccc(C(F)(F)F)cc2F)C2CC2)C[C@H]2C[C@H]21` [Example 61, (1R,3R,5R)-N-((R)-cyclopropyl(2-fluoro-4-(trifluoromethyl)phenyl)methyl)-2-(5-(methylsulfonyl)-2-(2-propanylamino)benzoyl)-2-azabicyclo[3.1.0]hexane-3-carboxamide] displayed an AC1.4 of 0.0687 µM.
As for `CC(=O)Nc1ccccc1C(=O)N1[C@@H](C(=O)N[C@@H](c2ccc(C(F)(F)F)cc2F)C2CC2)C[C@H]2C[C@H]21` [Example 372, (1R,3R,5R)-2-(2-acetamidobenzoyl)-N-((R)-cyclopropyl(2-fluoro-4-(trifluoromethyl)phenyl)methyl)-2-azabicyclo[3.1.0]hexane-3-carboxamide], the figure is 1.2085 µM.
In turn, `N#CC1CN(S(=O)(=O)N2CCCC(F)(C(=O)N3CCC[C@@H]3C(=O)NCc3ccc(C(F)(F)F)cc3)C2)C1` (stereo partly drawn) [Example 183, 1-((-1-((3-cyano-1-azetidinyl)sulfonyl)-3-fluoro-3-piperidinyl)carbonyl)-N-(4-(trifluoromethyl)benzyl)-D-prolinamide] showed an AC1.4 of 0.3361 µM.
Regarding `N#CC1CN(S(=O)(=O)N2CCC[C@H](C(=O)N3CCC[C@@H]3C(=O)NCc3cc(F)c(Cl)cc3F)C2)C1` [Example 20, N-(4-chloro-2,5-difluorobenzyl)-1-(((3S)-1-((3-cyano-1-azetidinyl)sulfonyl)-3-piperidinyl)carbonyl)-D-prolinamide], the AC1.4 came to 0.02545 µM.
As for `N#CC1CN(S(=O)(=O)N2CCC[C@H](C(=O)N3CCC[C@@H]3C(=O)N[C@@H](c3ccc(Cl)cc3F)C3CC3)C2)C1` [Example 2, N-((R)-(4-chloro-2-fluorophenyl)(cyclopropyl)methyl)-1-(((3S)-1-((3-cyano-1-azetidinyl)sulfonyl)-3-piperidinyl)carbonyl)-D-prolinamide], the AC1.4 is 0.01475 µM.
Compound `O=C(NCc1ccc(C(F)(F)F)cc1)[C@H]1CCCN1C(=O)[C@H]1CCCN(S(=O)(=O)N2CC(CC(F)(F)F)C2)C1` [Example 787, 1-(((3S)-1-((3-(2,2,2-trifluoroethyl)-1-azetidinyl)sulfonyl)-3-piperidinyl)carbonyl)-N-(4-(trifluoromethyl)benzyl)-D-prolinamide] came in with an AC1.4 of 8.931 µM.
`NS(=O)(=O)c1ccc(F)c(C(=O)N2CCC[C@@H]2C(=O)N[C@@H](c2ccc(C(F)(F)F)cc2F)C2CC2)c1` [Example 566, N-((R)-cyclopropyl(2-fluoro-4-(trifluoromethyl)phenyl)methyl)-1-(2-fluoro-5-sulfamoylbenzoyl)-D-prolinamide] came in with an AC1.4 of 3.0845 µM.
As for `N#CC1CN(S(=O)(=O)N2CCC[C@H](C(=O)N3CCC[C@@H]3C(=O)NC3COc4ccc(C(F)(F)F)cc43)C2)C1` (stereo partly drawn) [Example 657, (2R)-1-((S)-1-((3-cyanoazetidin-1-yl)sulfonyl)piperidine-3-carbonyl)-N-(5-(trifluoromethyl)-2,3-dihydrobenzofuran-3-yl)pyrrolidine-2-carboxamide], the figure is 4.572 µM.
As for `O=C(NCc1ccc(C(F)(F)F)cc1F)[C@H]1CCCN1C(=O)c1cccc(S(=O)(=O)N2CC(O)C2)c1` [Example 449, N-(2-fluoro-4-(trifluoromethyl)benzyl)-1-(3-((3-hydroxy-1-azetidinyl)sulfonyl)benzoyl)-D-prolinamide], the figure is 1.845 µM; as for `CCOc1ccc(S(C)(=O)=O)cc1C(=O)N1CCC[C@@H]1C(=O)N[C@@H](c1ccc(C(F)(F)F)cc1F)C1CC1` [Example 554, N-((R)-cyclopropyl(2-fluoro-4-(trifluoromethyl)phenyl)methyl)-1-(2-ethoxy-5-(methylsulfonyl)benzoyl)-D-prolinamide], 2.688 µM.
Consider `O=C(NCc1ccc(C(F)(F)F)cc1)[C@H]1CCCN1C(=O)[C@H]1CCCN(S(=O)(=O)N2CC(O)C2)C1` [Example 631, 1-(((3S)-1-((3-hydroxy-1-azetidinyl)sulfonyl)-3-piperidinyl)carbonyl)-N-(4-(trifluoromethyl)benzyl)-D-prolinamide], for which the AC1.4 turned out to be 4.082 µM.
Consider `C#CC1(O)CN(S(=O)(=O)N2CCC[C@H](C(=O)N3CCC[C@@H]3C(=O)NCc3ccc(C(F)(F)F)cc3F)C2)C1` [Example 196, 1 (((3S)-1-((3-ethynyl-3-hydroxy-1-azetidinyl)sulfonyl)-3-piperidinyl)carbonyl)-N-(2-fluoro-4-(trifluoromethyl)benzyl)-D-prolinamide], for which the AC1.4 came to 0.3906 µM.
In the case of `C[C@H](NC(=O)[C@H]1CCCN1C(=O)[C@H]1CCCN(S(=O)(=O)N2CC(C#N)C2)C1)c1ccc(Cl)c(F)c1` [Example 462, N-((1S)-1-(4-chloro-3-fluorophenyl)ethyl)-1-(((3S)-1-((3-cyano-1-azetidinyl)sulfonyl)-3-piperidinyl)carbonyl)-D-prolinamide] it was 1.9235 µM; in that of `O=C(NCc1ccc(C(F)(F)F)cc1)[C@H]1CCCN1C(=O)[C@H]1CCCN(S(=O)(=O)N2CC(c3cccc(C(F)(F)F)c3)C2)C1` [Example 771, N-(4-(trifluoromethyl)benzyl)-1-(((3S)-1-((3-(3-(trifluoromethyl)phenyl)-1-azetidinyl)sulfonyl)-3-piperidinyl)carbonyl)-D-prolinamide], 8.1415 µM.
In the case of `CS(=O)(=O)c1cccc(C(=O)N2C[C@@H](F)C[C@@H]2C(=O)N[C@@H](c2ccc(C(F)(F)F)c(F)c2)C2COC2)c1` [Example 273, (4S)-4-fluoro-N-((R)-(3-fluoro-4-(trifluoromethyl)phenyl)(3-oxetanyl)methyl)-1-(3-(methylsulfonyl)benzoyl)-D-prolinamide] it was 0.6841 µM.
In the case of `O=C(NCc1ccc(C(F)(F)F)cc1)[C@H]1CCCN1C(=O)[C@H]1CCCN(S(=O)(=O)N2CC(c3ccc(F)cc3)C2)C1` [Example 477, 1-(((3S)-1-((3-(4-fluorophenyl)-1-azetidinyl)sulfonyl)-3-piperidinyl)carbonyl)-N-(4-(trifluoromethyl)benzyl)-D-prolinamide], the AC1.4 is 2.0765 µM.
In the case of `NC(=O)C1(c2cccc(C(=O)N3[C@@H](C(=O)N[C@@H](c4cc(F)c(Cl)cc4F)C4COC4)C[C@H]4C[C@H]43)c2)CC1` [Example 184, (1R,3R,5R)-2-(3-(1-carbamoylcyclopropyl)benzoyl)-N-((R)-(4-chloro-2,5-difluorophenyl)(3-oxetanyl)methyl)-2-azabicyclo[3.1.0]hexane-3-carboxamide] it was 0.3365 µM.
